In paper PMC9501633, “Synthesis, Characterisation and Mechanism of Action of Anticancer 3-Fluoroazetidin-2-ones” (Pharmaceuticals, 2022):

Assays:
[1] = test system: MCF-7 human breast cancer cells; experiment: AlamarBlue cell viability assay; format: cell-based; conditions: MCF-7, 72 h
Procedure: The antiproliferative potential of the synthesised 3-fluoro β-lactams 26–35 and 3,3-difluoro β-lactams 36–45 was evaluated in MCF-7 human breast cancer cells using the AlamarBlue assay, with CA-4 as reference compound (Figure 3). […] The results for the preliminary in vitro antiproliferative screen for 3-fluoro β-lactam compounds (26–29), which contain different substituents at the para position in the B ring, are presented in Figure 3A.
Cells were seeded at a density of 5 × 10^3 cells/well (MCF-7 and MDA-MB-231) and 1 × 10^4 cells/well (HEK-293T) in 96-well plates (200 μL per well). After 24 h, cells were then treated with medium alone, with vehicle (1% ethanol (v/v)) or with CA-4 or β-lactam compounds at 1 μM and 10 μM concentrations. […] Cell proliferation for MCF-7 cells was analysed with the AlamarBlue assay (Invitrogen Corp.) as previously described by us. After 72 h, AlamarBlue (10% (v/v)) was added to each well, and plates were incubated for 3–5 h at 37 °C in the dark. Fluorescence results were obtained with a 96-well fluorimeter with excitation at 530 nm and emission at 590 nm with results recorded as percentage viability relative to vehicle control (100%). Dose–response curves were obtained and IC50 values (concentration of drug resulting in 50% reduction in cell survival) were calculated using Prism (GraphPad Software, Inc., La Jolla, CA, USA).
Figure 3 Preliminary cell viability data for 3-fluoro and 3,3-difluoro β-lactam compounds. (A) 3-Fluoro β-lactam compounds containing different para-substituent ring B 26–29; 3-fluoro β-lactam compounds containing different meta-substituent ring B 30, 32–35; (B) 3-difluoro β-lactam compounds containing different para-substituent ring B 36–39; 3-difluoro β-lactam compounds containing different meta-substituent ring B 40, 42–45 in MCF-7 breast cancer cells. Cell proliferation of MCF-7 cells was determined with an AlamarBlue assay (seeding density […] for 96-well plates). Compound concentrations of either 10 μM or 1 μM for 72 h were used to treat the cells with control wells containing vehicle ethanol (1% v/v) and CA-4 (10 μM and 1 μM). The mean value for three experiments is shown with the ± S.E.M. for three independent experiments.

[2] = test system: MCF7; experiment: NCI 60 cell line screen, Breast; format: cell-based, human; conditions: one dose 10 µM
[3] = test system: RPMI-8226; experiment: NCI 60 cell line screen, Leukaemia; format: cell-based, human; conditions: one dose 10 µM
[4] = test system: ACHN; experiment: NCI 60 cell line screen, Renal; format: cell-based, human; conditions: one dose 10 µM
[5] = test system: MDA-MB-435; experiment: NCI 60 cell line screen, Melanoma; format: cell-based, human; conditions: one dose 10 µM
[6] = test system: RXF 393; experiment: NCI 60 cell line screen, Renal; format: cell-based, human; conditions: one dose 10 µM
[7] = test system: HCC-2998; experiment: NCI 60 cell line screen, Colon; format: cell-based, human; conditions: one dose 10 µM
[8] = test system: NCI-H23; experiment: NCI 60 cell line screen, NSCLung; format: cell-based, human; conditions: one dose 10 µM
[9] = test system: A498; experiment: NCI 60 cell line screen, Renal; format: cell-based, human; conditions: one dose 10 µM
[10] = test system: SK-MEL-5; experiment: NCI 60 cell line screen, Melanoma; format: cell-based, human; conditions: one dose 10 µM
[11] = test system: EKVX; experiment: NCI 60 cell line screen, NSCLung; format: cell-based, human; conditions: one dose 10 µM
[12] = test system: NCI-H226; experiment: NCI 60 cell line screen, NSCLung; format: cell-based, human; conditions: one dose 10 µM
[13] = test system: DU-145; experiment: NCI 60 cell line screen, Prostate; format: cell-based, human; conditions: one dose 10 µM
[14] = test system: LOX IMVI; experiment: NCI 60 cell line screen, Melanoma; format: cell-based, human; conditions: one dose 10 µM
[15] = test system: UO-31; experiment: NCI 60 cell line screen, Renal; format: cell-based, human; conditions: one dose 10 µM
[16] = test system: SF-539; experiment: NCI 60 cell line screen, CNS; format: cell-based, human; conditions: one dose 10 µM
[17] = test system: OVCAR-5; experiment: NCI 60 cell line screen, Ovarian; format: cell-based, human; conditions: one dose 10 µM
[18] = test system: HS 578T; experiment: NCI 60 cell line screen, Breast; format: cell-based, human; conditions: one dose 10 µM
[19] = test system: BT-549; experiment: NCI 60 cell line screen, Breast; format: cell-based, human; conditions: one dose 10 µM
[20] = test system: SK-OV-3; experiment: NCI 60 cell line screen, Ovarian; format: cell-based, human; conditions: one dose 10 µM
[21] = test system: M14; experiment: NCI 60 cell line screen, Melanoma; format: cell-based, human; conditions: one dose 10 µM
[22] = test system: HCT-116; experiment: NCI 60 cell line screen, Colon; format: cell-based, human; conditions: one dose 10 µM
[23] = test system: OVCAR-8; experiment: NCI 60 cell line screen, Ovarian; format: cell-based, human; conditions: one dose 10 µM
[24] = test system: HOP-92; experiment: NCI 60 cell line screen, NSCLung; format: cell-based, human; conditions: one dose 10 µM
[25] = test system: NCI-H460; experiment: NCI 60 cell line screen, NSCLung; format: cell-based, human; conditions: one dose 10 µM
[26] = test system: SNB-75; experiment: NCI 60 cell line screen, CNS; format: cell-based, human; conditions: one dose 10 µM

COc1ccc(/C=C\c2cc(OC)c(OC)c(OC)c2)cc1O [CA-4, combretastatin A-4, reference compound]
IC50 ([1]; Homo sapiens, MCF7, 72 h): 3 nM
IC50 [1]: 3.5 nM

CCOc1ccc(C2N(c3cc(OC)c(OC)c(OC)c3)C(=O)C2(F)F)cc1 (centres unmarked) [Compound 37, 4-(4-Ethoxyphenyl)-3,3-difluoro-1-(3,4,5-trimethoxyphenyl)azetidin-2-one]
inhibition at 10 µM ([2]; Homo sapiens, MCF7, MCF7): 82.8%
Growth % ([2]; MCF7): 17.19%
Inhibition % ([2]; MCF7): 82.8%
inhibition at 10 µM ([3]; Homo sapiens): 85.4%
Growth % [3]: 14.64%
inhibition at 10 µM ([4]; Homo sapiens): 44.8%
Growth % [4]: 55.25%
inhibition at 10 µM ([5]; Homo sapiens): 83.2%
Growth % [5]: 16.83%
inhibition at 10 µM ([6]; Homo sapiens): 45.8%
Growth % [6]: 54.19%
inhibition at 10 µM ([7]; Homo sapiens): 18.3%
Growth % [7]: 81.66%
inhibition at 10 µM ([8]; Homo sapiens): 66.4%
Growth % [8]: 33.57%
inhibition at 10 µM ([9]; Homo sapiens): 7.7%
Growth % [9]: 92.3%
inhibition at 10 µM ([10]; Homo sapiens): 93.2%
Growth % [10]: 6.76%
inhibition at 10 µM ([11]; Homo sapiens): 24.7%
Growth % [11]: 75.34%
inhibition at 10 µM ([12]; Homo sapiens): 29%
Growth % [12]: 71.01%
inhibition at 10 µM ([13]; Homo sapiens): 70%
Growth % [13]: 30.05%
inhibition at 10 µM ([14]; Homo sapiens): 72.4%
Growth % [14]: 27.57%
inhibition at 10 µM ([15]; Homo sapiens): 48.1%
Growth % [15]: 51.9%
inhibition at 10 µM ([16]; Homo sapiens): 89.2%
Growth % [16]: 10.75%
inhibition at 10 µM ([17]; Homo sapiens): 33.5%
Growth % [17]: 66.47%
inhibition at 10 µM ([18]; Homo sapiens): 62.6%
Growth % [18]: 37.42%
inhibition at 10 µM ([19]; Homo sapiens): 55.8%
Growth % [19]: 44.17%
inhibition at 10 µM ([20]; Homo sapiens): 28.1%
Growth % [20]: 71.89%
inhibition at 10 µM ([21]; Homo sapiens): 72.5%
Growth % [21]: 27.45%
inhibition at 10 µM ([22]; Homo sapiens): 91.1%
Growth % [22]: 8.92%
inhibition at 10 µM ([23]; Homo sapiens): 56.8%
Growth % [23]: 43.23%
inhibition at 10 µM ([24]; Homo sapiens): 44.4%
Growth % [24]: 55.62%
inhibition at 10 µM ([25]; Homo sapiens): 87.3%
Growth % [25]: 12.73%
inhibition at 10 µM ([26]; Homo sapiens): 44.1%
Growth % [26]: 55.93%
